The results in this text go back to a melting point compilation (Tetko et al.; mined from patent text by program, amines drawn as free bases though some values may be those of a salt).

In general, melting point refers to the temperature, or range, at which the solid turns liquid.

In turn, `CC(COc1c(-c2ccccc2)c(=O)oc2c(-c3ccccc3)cccc12)CN1CCOCC1` (stereo unspecified) displayed a melting point of 120 to 121 °C.
`CC(=O)NCCCC(=O)N1CC1C#N` (stereo unspecified): the melting point was in the range of 72 to 75 °C.
As to `O=C1CSc2cccc(F)c2N1`, the melting point is 190 to 191 °C.
As to `CN1Cc2c(-c3nc(CN(CC4CC4)CC4CC4)no3)ncn2-c2ccccc2C1=O`, the melting point lay within 170 to 174 °C.
For `CCOC(=O)Cc1ccc(-c2nc(COc3ccc(COc4nn(-c5ccccc5)cc4/C=C/c4nc(N5CCCCC5)sc4C)cc3OC)c(C)o2)cc1`, the melting point fell in the range of 131 to 132 °C.
In the case of `Cc1cc(NC(=O)C(C)(O)COc2ccccc2F)ccc1[N+](=O)[O-]` (stereo unspecified) it was 94 to 96 °C; in that of `CCCCOC(=O)c1ccc2ccc(C(=O)O)nc2c1OC(=O)C(C)(C)C`, 158 °C.
Turning to `COc1cc2c(cc1OC)-c1[nH]c3ccc(O)cc3c1C2=O`, the melting point is more than 260 °C.
In the case of `COC(=O)[C@H](CCCO)NC(=O)[C@H](Cc1ccccc1)NC(=O)OCc1ccccc1`, the melting point lay within 155 to 157 °C.
As to `Nc1nc(N)c(-c2ccc(Cl)cc2Cl)c(C(F)(F)F)n1`, the melting point is 220 to 221 °C.
In the case of `COc1cc(C(=O)NCCC2Cc3c(C)c(OCc4ccccc4)c(C)c(C)c3O2)cc(OC)c1OC` (racemic) it was 171 to 173 °C.
In the case of `CCOC(=O)c1c(CSc2nccn2CC)nc2cc(OC)c(OC)cc2c1-c1ccc(OC)c(OC)c1` it was 157 to 158 °C; in that of `Cc1ccccc1NC(=O)Nc1ccc(CC(=O)ON2C(=O)CCC2=O)cc1`, 211 to 212 °C.
As to `CC(C)(c1ccccc1)n1nnc(-c2ccccc2-c2ccc(CBr)cc2)n1`, the melting point was in the range of 108 to 109 °C.
`Cc1ccc2c(c1)NC(=S)C2=O` had a melting point of 246 °C.
As to `CCCCc1[nH]c(Cc2ccccc2)nc(=O)c1Cc1ccc(-c2ccccc2C(=O)O)cc1`, the melting point worked out at 219 °C.
Consider `CC(=O)Oc1c(C)c(C)c2c(c1C)CCC(C)(COc1ccc(N)cc1)O2` (stereo unspecified), for which the melting point lay within 138 to 140 °C.
In the case of `CCOc1ccc(C2=NN(CCCCCCBr)C(=O)[C@H]3CCCC[C@@H]23)cc1OCC` (relative stereo) it was 47 to 51 °C; in that of `NS(=O)(=O)c1ccc(NC(=O)Nc2ccc(F)cc2)cc1`, 242 to 243 °C.
The figure for `COc1cc2c(cc1OC)C(=O)CCCS2` is 128 to 129 °C.
`O=[N+]([O-])c1ccc(OCc2cccc(F)c2)cc1` showed a melting point of 104 to 105 °C.
`COC(=O)c1cc(Cl)c(-n2[nH]c(N)cc2=O)c(Cl)c1`: the melting point lay in the range of 225 to 229 °C.
Turning to `CC#COc1ccc2c(=O)c(C)c(-c3ccccc3)oc2c1`, the melting point lay within 179 to 180 °C.
The figure for `CCCc1nc(C(O)CCC)c(C)[nH]1` (stereo unspecified) is 169 to 171 °C; for `CN(C)CCNC(=O)c1cccc(-c2nnc(CSCCOc3ccccc3)o2)c1` it is 64 °C.
The figure for `COc1ccc(OCC#N)c(SCC#N)c1` is 53 to 54 °C; for `CC(=O)OC1C(OC(=O)c2ccc(N)cc2)C=C(C)C(=O)CC1(C)C` (stereo unspecified) it is 158 to 160 °C; for `Cc1ccc(CC(CC(=O)N2CC3CCCCC3C2)C(=O)O)cc1` (stereo unspecified) it is 133 to 134 °C.
The figure for `O=C1c2ccccc2CCC1c1ccccc1` (stereo unspecified) is 69 °C; for `CC1(C)CCc2c(N3CCCC3)nc3sc4c(NCc5ccco5)ncnc4c3c2C1` it is 201 to 202 °C.
Regarding `COC(=O)CC(=O)c1cc(F)c(Cl)cc1Cl`, the melting point was 77 to 79 °C.
In the case of `C=CC(C)(O)C#Cc1ncn2c1CN(C)C(=O)c1c(Cl)cccc1-2` (stereo unspecified) it was 185 to 187 °C; in that of `CN(CCCCCCO)c1ccc(C=Cc2ccc(S(C)(=O)=O)cc2)cc1`, 113 to 115 °C; in that of `COc1ccc(C2Sc3cc(Oc4ccccc4)ccc3N(CCN(C)C)C(=O)C2OC(C)=O)cc1F` (stereo unspecified), 167 to 168 °C.
Regarding `Cc1cc(OCC(=O)O)ccc1NC(=O)c1ccc(N2CCNCC2)cc1`, the melting point was more than 250 °C.
Consider `Clc1cccc(Oc2ccc(N3CCNCC3)nc2)c1`, for which the melting point fell in the range of 70 to 73 °C.
Take `COCCOc1cc2ncc(C#N)c(C)c2cc1OC`: the melting point fell in the range of 188 to 193 °C.
In the case of `COC(=O)c1cc(S(C)(=O)=O)nc(Cl)n1` it was 127 to 129 °C; in that of `CCCCNC(=S)c1cccc(NC(=O)N(C)C)c1`, 68 to 71 °C.
The figure for `O=S(Cc1ccc(Cl)c(Cl)c1)c1nc2cnccc2[nH]1` (stereo unspecified) is 198 to 201 °C.
In the case of `CN1C(=O)C(=CC(=O)O)SC1=Nc1ccc(Cl)c(Cl)c1` it was 225 to 226 °C.
Take `CCOC(=O)c1c(OC(=O)CCl)c2ccccc2c2nc3ccccc3nc12`: the melting point is 208 to 209 °C.
In the case of `CC(C)c1nc(-c2cccs2)cc(-c2ccc(F)cc2)c1C=C(Br)Br` it was 107 to 108 °C; in that of `O=C1c2c(O)cccc2C(Sc2ccccc2)c2cccc(O)c21`, 156 to 157 °C.
In the case of `O=C1CC2CC(Oc3nc4ccccc4[nH]3)CC2C1` (stereo unspecified) it was 208 to 209 °C.
`CC(C)(C)COC1CCC(=O)N1C(=O)c1ccccc1` (stereo unspecified) yielded a melting point of 83 to 85 °C.
In the case of `CN1C(=O)C(C(=O)Nc2ccccn2)Sc2ccccc21` (stereo unspecified) it was 141 to 143 °C.
With `O=C(O)[C@H](Cc1c[nH]c2ccccc12)NC(=O)C1(NC(=O)[C@@H](S)C2CCOCC2)CCCC1`, the melting point was in the range of 212 to 215 °C.
`CCN(CC)c1ccc(N(c2ccc(N(C)C)cc2)C2(c3ccc(N(C)C)cc3Cl)OC(=O)c3ccccc32)cc1` (stereo unspecified) came in with a melting point of 67 to 84 °C.
In the case of `CC(C)(C)OC(=O)NCC(O)(CNCC(O)C(Cc1ccccc1)NC(=O)OC(C)(C)C)Cc1ccccc1` (stereo unspecified) it was 65 to 67 °C; in that of `CCCCc1nnc(-c2ccc(OC)cc2)n1-c1ccc(OC)cc1`, 94 °C; in that of `CCCCCCCCCCCCCCCCc1nc(N(C)C)nc(C)c1O`, 86 to 87 °C.
`CC(C)C(=O)N[C@@H]1CCc2c(c3cc(-c4ccno4)ccc3n2Cc2cccc(F)c2)C1` returned a melting point of 238 to 241 °C.
Molecule `O=C(O)c1ccc(C=Cc2ccccc2)cc1` gave a melting point of 252 °C.
For `COCn1c(-c2ncc(CO)s2)cc2cccc(N(C)S(=O)(=O)c3cccs3)c21`, the melting point was in the range of 156 to 157 °C.
The figure for `CCOC(=O)c1sc(Oc2ccccc2)c2c1CCC(C(OCC)OCC)C2=O` (stereo unspecified) is 73 to 74 °C; for `C/C(=C(\C#N)C(=S)/N=C/N(C)C)N1CCC(c2ccccc2)CC1` it is 151 to 152 °C.
As for `COC(=O)c1c2ccccc2nc2c3ccccc3n(C)c12`, the melting point turned out to be 127 °C.
In turn, `C[C@@H]1CCN(C(=O)OC(C)(C)C)C[C@@H]1N(C)C(=O)OC(C)(C)C` displayed a melting point of 118 °C.
`CCOC(=O)c1sc(N2CCN(Cc3ccc(C(F)(F)F)cc3)C2=O)nc1C`: the melting point was in the range of 126 to 127 °C.
`Cc1cccc(Nc2cc(Cl)nc(SCC(=O)NN)n2)c1C`: the melting point was 185 to 189 °C.
In the case of `Cc1cc(-c2cncc(OC3SCC(O)C(O)C3O)c2)ccc1C#N` (stereo unspecified) it was 198 to 200 °C; in that of `COc1ccc2c(C)c(CCOS(C)(=O)=O)c(=O)oc2c1`, 174 to 175 °C.
`CC(=O)CCN1CCC(Nc2nc3ccccc3n2Cc2ccc(F)cc2)CC1` gave a melting point of 131 °C.
`Oc1cccc(CC2c3ccccc3CCc3ccccc32)c1`: the melting point was 76.6 °C.
In the case of `CC(CCCc1ccccc1)c1cc2oc(=O)c3c(c2cc1O)CCCC3` (stereo unspecified) it was 184 to 193 °C; in that of `CCN(CC)C(=O)c1ccc2ccccc2c1-c1ccccc1F`, 137 to 140 °C.
The figure for `O=[N+]([O-])c1cc([N+](=O)[O-])c(Nc2ccc3ccccc3c2[N+](=O)[O-])c(C(F)(F)F)c1` is 213 to 215 °C; for `CCC(C)c1ccccc1N` (stereo unspecified) it is 89 to 91 °C.
The figure for `O=C1NCCCC1Cc1ccccc1` (stereo unspecified) is 120 to 123 °C.
`O=C(O)c1cccc(Oc2cccc(C(F)(F)F)c2)n1` showed a melting point of 47 to 49 °C.
In the case of `CC1(C)c2cc(I)ccc2-c2ccc(I)cc21` it was 195 °C; in that of `O=C1Nc2ccccc2C12COc1ccc3c(c12)N(Cc1ncccc1C(F)(F)F)ON3` (stereo unspecified), 212 to 215 °C.
For `Cc1ccc(N(C=C(C#N)C#N)N=C(C#N)C#N)cc1`, the melting point was in the range of 168 to 169 °C.
`COc1cccc(N2CCN(CCn3c(=O)[nH]c4cscc4c3=O)CC2)c1` had a melting point of 184 to 186 °C.
In the case of `COc1cccc(C(CC(N)=O)CC(N)=O)c1` it was 161 to 162 °C; in that of `O=C(CCl)c1ccc(OCCOc2ccc(C(=O)CCl)cc2)cc1`, 165 °C; in that of `CC(=O)N1C2=NC(C)(C)N(C)C(=O)N2c2ccccc21`, 159 to 162 °C.
In the case of `Cc1nc2c3c(c(CO)cn2c1C)CCC(c1ccccc1)C3` (stereo unspecified) it was 290 to 292 °C; in that of `CCN(CC)C(=O)N[C@H]1CC[C@H](NC(=O)N(CC)CC)CC1`, 225 to 228 °C; in that of `NC1=NN(c2ccccc2)C(c2ccccc2)C1` (stereo unspecified), 195 to 197 °C.
The figure for `CSc1ccc(-c2ccc(S(=O)(=O)CC(CO)N(O)C=O)cc2)cc1` (stereo unspecified) is 161 to 162 °C.
For the molecule `O=C(O)c1cnc(-c2ccc(OCc3ccccc3)cc2)nc1`, the melting point is 299 °C.
As to `COc1ncc(Cl)cc1C(O)C(N)=O` (stereo unspecified), the melting point lay in the range of 110 to 113 °C.
For the molecule `O=C(c1ccc(O)nc1)N1CCN=C1Nc1c(Cl)cccc1Cl`, the melting point is 256 to 258 °C.
In the case of `O=CN(N=Cc1cccs1)c1ccc(Cl)cc1` it was 103 to 105 °C; in that of `CN1CCN(c2ncc(-c3cc(Cl)cc(Cl)c3Cl)c(N)n2)CC1`, 162 to 164 °C; in that of `FC(F)(F)c1c(CNC2Cc3ccccc3C2)ccn2c(CC3CC3)nnc12`, more than 300 °C.
The figure for `COc1cc2[nH]cc(C(=O)NN3CCNC3=O)c(=O)c2cc1OC` is more than 300 °C; for `C=CC(=O)NC(C)(C)CS(=O)(=O)OC` it is 80.6 °C; for `O=CC=NNc1c(Cl)cc(C(F)(F)F)cc1Cl` it is 131 to 133 °C.
